Results taken from PMC10195144, “Purification and characterization of a cold-active myrosinase from marine Pseudomonas oleovorans SuMy07” (Acta Biochimica et Biophysica Sinica, 2023).

Test system: T1, myrosinase of SuMy07
T1 construct: gene beta-thioglucoside glucohydrolase; native enzyme purified from the marine isolate (ultrafiltration, ammonium sulfate, Superdex 200); two subunits of 65 kDa
Assay: double-reciprocal plot of sinigrin hydrolysis
Assay type: biochemical, Pseudomonas oleovorans
Conditions: pH 7.0, 25 °C

Km: 1400 µM
Compound: C=CC/C(=N/OS(=O)(=O)O)S[C@@H]1O[C@H](CO)[C@@H](O)[C@H](O)[C@H]1O [sinigrin hydrate]
